Results as given in patent US9289400B2, “D3 dopamine receptor agonists to treat dyskinesia in parkinson's disease” (priority 2010, dated 2016).
pEC50, pKi: −log10 of the molar value. “And” between values parts separate entries of the source, which are not always exact repeats. Equal values may be shown once. Read-outs that look alike come from different tables or passages of the source. Marks after values point to notes of the source that are not given here.

What was measured:
D4.2 dopamine receptor = D4.2 dopamine receptor (Homo sapiens (Human), UniProt P21917, DEL265-296); assay type: cell-based
Sequence of D4.2 dopamine receptor (P21917 other isoform, or with tags, fused parts or gaps del 265-296): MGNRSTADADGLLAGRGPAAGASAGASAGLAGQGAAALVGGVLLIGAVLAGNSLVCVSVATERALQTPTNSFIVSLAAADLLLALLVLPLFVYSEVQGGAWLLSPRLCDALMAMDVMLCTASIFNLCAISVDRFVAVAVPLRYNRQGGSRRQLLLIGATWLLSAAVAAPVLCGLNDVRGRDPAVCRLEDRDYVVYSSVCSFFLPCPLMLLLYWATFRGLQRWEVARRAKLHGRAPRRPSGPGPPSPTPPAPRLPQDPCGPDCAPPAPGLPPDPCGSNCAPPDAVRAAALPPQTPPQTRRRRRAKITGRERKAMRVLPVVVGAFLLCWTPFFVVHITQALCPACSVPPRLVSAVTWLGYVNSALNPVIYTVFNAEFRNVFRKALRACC
Procedure: The EC50 values for each receptor subtype is determined by fitting the data points using the Hill equation.
AtT-20 mouse pituitary cells were grown in Ham's F10 medium with 5% FBS, 10% heat-inactivated horse serum, 2 mM glutamine and 50 μg/ml gentamicin (Invitrogen, Carlsbad, Calif.). AtT-20 cells stabling expressing the human D2S, D2L, D3, and D4.2 and receptor were maintained in the above F10 culture media supplemented with 500 μg/ml G418 (Invitrogen). For electrophysiological characterization, cells were plated onto glass coverslips coated with 40 μg/ml poly L-lysine (Sigma-Aldrich). […] Physiol. […] Neurosci. […] Biophys. […] Neurosci.
Drug solutions were delivered to cells via a multi-barreled micropipette array. The current responses were normalized to the cell capacitance, to account for variation in cell size.
To compare the functional effects of the new class of D3 receptor agonists, PBZI (Table 2) and ES609 (Table 3) were tested on AtT-20 cells stably expressing human D3, D2S, D2L or D4.2.

D2S dopamine receptor [1] = biological target: T1, D2S dopamine receptor (Homo sapiens (Human), UniProt P14416); assay: Adenylyl cyclase inhibition (forskolin-induced cAMP) in AtT-20 cells stably expressing D2S; assay type: cell-based; settings: for pEC50: AtT-20 cells; for Adenylyl cyclase inhibition: agonist type: versus full agonist quinpirole
T1 sequence (P14416 other isoform, or with tags, fused parts or gaps): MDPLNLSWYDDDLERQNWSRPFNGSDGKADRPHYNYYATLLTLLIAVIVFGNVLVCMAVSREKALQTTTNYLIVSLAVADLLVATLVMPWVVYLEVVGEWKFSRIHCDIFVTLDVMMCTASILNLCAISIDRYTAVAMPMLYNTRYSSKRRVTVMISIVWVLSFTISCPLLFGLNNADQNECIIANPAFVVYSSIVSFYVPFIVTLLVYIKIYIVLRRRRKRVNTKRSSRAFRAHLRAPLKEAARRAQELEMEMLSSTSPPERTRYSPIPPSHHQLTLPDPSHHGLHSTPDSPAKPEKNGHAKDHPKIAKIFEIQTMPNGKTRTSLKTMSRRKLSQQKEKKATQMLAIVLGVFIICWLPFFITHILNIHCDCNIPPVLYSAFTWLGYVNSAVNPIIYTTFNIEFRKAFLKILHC
Procedure: In the second functional assay, the ability of D2-like dopamine receptors to inhibit adenylyl cyclase activity is assessed. The ability of the lead compound to dose-dependently decrease forskolin-induced cAMP levels is measured. The IC50 values for each receptor subtype is determined by fitting the data points using the Hill equation. Previously, the EC50 and IC50 values for dopamine and quinpirole has been determined in these cell lines in both functional assays.
(§1) AtT-20 mouse pituitary cells were grown in Ham's F10 medium with 5% FBS, 10% heat-inactivated horse serum, 2 mM glutamine and 50 μg/ml gentamicin (Invitrogen, Carlsbad, Calif.). AtT-20 cells stabling expressing the human D2S, D2L, D3, and D4.2 and receptor were maintained in the above F10 culture media supplemented with 500 μg/ml G418 (Invitrogen). For electrophysiological characterization, cells were plated onto glass coverslips coated with 40 μg/ml poly L-lysine (Sigma-Aldrich). The generation and characterization of the AtT-20 cells stably expressing various human dopamine receptors have been previously reported (Kuzhikandathil & Oxford, 2000, J. Gen. Physiol. 115:697-706; Kuzhikandathil et al., 1998, Mol. Cell. Neurosci. 12:390-402; Kuzhikandathil & Bartoszyk, 2006, Neuropharm. 51:873-884; Westrich & Kuzhikandathil, 2007, Biochim. Biophys. Acta-MCR 1773:1747-1758; Kuzhikandathil et al., 2004, Mol. Cell. Neurosci. 26:144-155; Westrich et al., 2010, Biochem. Pharmacol. 79:897-907).
Cyclic AMP (cAMP) levels were assessed using the cAMP Biotrak Enzymeimmunoassay (EIA) kit (GE Healthcare, Piscataway, N.J., USA) as described previously (Kuzhikandathil & Bartoszyk, 2006, Neuropharm. 51:873-884). The cAMP levels in each treated sample were assayed in triplicate and the entire experiment repeated three independent times.
(§2) To compare the functional effects of the new class of D3 receptor agonists, PBZI (Table 2) and ES609 (Table 3) were tested on AtT-20 cells stably expressing human D3, D2S, D2L or D4.2. Functional efficacy was determined by assessing the ability of PBZI and ES609 to inhibit adenylyl cyclase or activate GIRK channels coupled to these “D2-like” dopamine receptors. The EC50 values of PBZI and ES609 for inhibiting adenylyl cyclase and activating GIRK channels were in the range of 0.2 nM to 30 nM for D3 receptors.

D2S dopamine receptor [2] = biological target: T1, D2S dopamine receptor; assay: GIRK channel activation, whole cell voltage clamp, AtT-20 cells stably expressing D2S; assay type: cell-based; settings: for GIRK channel activation: agonist type: versus full agonist quinpirole
Procedure: The activation of the GIRK channels was measured electrophysiologically using whole cell voltage clamp recording (Kuzhikandathil et al., 2004, Mol. Cell. Neurosci. 26:144-155). The GIRK channel responses elicited with new ligands were compared to quinpirole, a classical full agonist of D2, D3 and D4 dopamine receptors. The adenylyl cyclase inhibition was determined using a commercially available ELISA assay (Westrich & Kuzhikandathil, 2007, Biochim. Biophys. Acta-Mol. Cell. Res. 1773:1747-1758).
In the first assay, whole cell voltage clamp recording is used to measure GIRK response to increasing concentrations of the lead compound (0.01 nM to 3,000 nM dose range). The EC50 values for each receptor subtype is determined by fitting the data points using the Hill equation.
as §1
(§3) Agonist-activated currents were measured by the whole-cell patch clamp technique in voltage clamp and current clamp mode as described previously (Kuzhikandathil & Oxford, 2000, J. Gen. Physiol. 115:697-706; Kuzhikandathil et al., 1998, Mol. Cell. Neurosci. 12:390-402; Kuzhikandathil & Bartoszyk, 2006, Neuropharm. 51:873-884; Westrich & Kuzhikandathil, 2007, Biochim. Biophys. Acta-MCR 1773:1747-1758; Kuzhikandathil et al., 2004, Mol. Cell. Neurosci. 26:144-155; Westrich et al., 2010, Biochem. Pharmacol. 79:897-907). Drug solutions were delivered to cells via a multi-barreled micropipette array. The current responses were normalized to the cell capacitance, to account for variation in cell size.
as §2

parental AtT-20 cells = assay: GIRK response in parental (non-transfected) AtT-20 cells; assay type: cell-based, mouse; settings: 300 nM, no exogenous D3 receptor expression
Procedure: To determine whether a compound is an agonist of the D3 dopamine receptor the AtT-20 neuroendocrine cell line that stably expresses the human D3 receptors is used. In the initial screen, the ability of 300 nM lead compound to activate G-protein coupled inward rectifier potassium (GIRK) channels (FIG. 1) is measured using whole cell voltage clamp recording. The protocol has been previously used for performing whole cell voltage clamp and measuring agonist-induced GIRK response. The acute ligand-induced GIRK currents are compared to that elicited by equivalent concentration of native agonist dopamine or full agonist quinpirole. The specificity of the response is determined by measuring GIRK response elicited by the lead compound in non-transfected AtT-20 cells and also in the presence of D2-like dopamine receptor antagonist eticlopride and D3 receptor selective antagonist GR218231 ((+)-(2R)-1,2,3,4-tetrahydro-6-[[(4-methoxyphenyl)sulfonyl]methyl]-N,N-dipropyl-2-naphthalenamine). To be considered for further development, the lead compound should generate a GIRK response that is equal to or greater than that elicited by equivalent concentration (300 nM) of dopamine or quinpirole.
AtT-20 mouse pituitary cells were grown in Ham's F10 medium with 5% FBS, 10% heat-inactivated horse serum, 2 mM glutamine and 50 μg/ml gentamicin (Invitrogen, Carlsbad, Calif.). AtT-20 cells stabling expressing the human D2S, D2L, D3, and D4.2 and receptor were maintained in the above F10 culture media supplemented with 500 μg/ml G418 (Invitrogen). […]
as §3, with “Drug solutions were delivered to cells via a multi-barreled micropipette array. The current responses were normalized to the cell capacitance, to account for variation in cell size.” left out

D2S = D2S (Homo sapiens (Human), UniProt P14416); settings: Scheideler et al., 1997; cited from earlier work
Sequence of D2S (P14416 other isoform, or with tags, fused parts or gaps): as above

SMILES	GIRK channel activation: agonist type (D4.2 dopamine receptor)	GIRK channel activation EC50 (D4.2 dopamine receptor; AtT-20 cells, D4.2)	GIRK channel activation Ratio of ES609 to quinpirole response (at 300 nM) (D4.2 dopamine receptor; D4.2, 300 nM)	GIRK response at 300 nM (D4.2 dopamine receptor; D4.2, 300 nM)	GIRK channel activation: agonist type (D4.2 dopamine receptor; listed as ES0609)	Adenylyl cyclase inhibition Ratio of ES609 to quinpirole response (at 300 nM) (D2S dopamine receptor [1]; 300 nM)	pEC50 (D2S dopamine receptor [1])	Adenylyl cyclase inhibition: agonist type (D2S dopamine receptor [1])	Adenylyl cyclase inhibition: agonist type (D2S dopamine receptor [1]; listed as ES0609)	GIRK current compared with quinpirole-induced current (D2S dopamine receptor [2]; 100 nM)	GIRK channel activation Ratio of ES609 to quinpirole response (at 300 nM) (D2S dopamine receptor [2]; 300 nM)	GIRK channel activation: agonist type (D2S dopamine receptor [2])	GIRK channel activation: agonist type (D2S dopamine receptor [2]; listed as ES0609)	GIRK currents in parental AtT-20 cells (parental AtT-20 cells)	GIRK currents in parental AtT-20 cells (parental AtT-20 cells; listed as ES 609)	GIRK channel activation Ratio of PBZI to quinpirole response (at 300 nM) (D4.2 dopamine receptor; D4.2, 300 nM)	pKi (D2S)	Adenylyl cyclase inhibition Ratio of PBZI to quinpirole response (at 300 nM) (D2S dopamine receptor [1]; 300 nM)	GIRK channel activation Ratio of PBZI to quinpirole response (at 300 nM) (D2S dopamine receptor [2]; 300 nM)	pEC50 (D2S dopamine receptor [2]; AtT-20 cells)
CC(N)CCc1ccccc1Cl (stereo not shown) [ES609]	elicited no response	No response	0^††	^††300 nM ES609 elicits no GIRK response; but, 300 nM quinpirole elicits a full GIRK response.	no response	0.29*	8.62	partial agonists	Partial	significantly less than the quinpirole-induced current	0.30*	partial agonists	Partial	neither 300 nM PBZI (hatched bar) nor 300 nM ES609 (cross hatched bar) induced GIRK currents	did not elicit GIRK currents	–	–	–	–	–
CCCN1CC[C@@H]2c3cc(O)ccc3CC[C@@H]21 [PBZI, (3aS,9bR)-3-propyl-1,2,3a,4,5,9b-hexahydrobenzo[e]indol-8-ol]	partial agonist	–	–	–	–	–	6.85 and < 6.82	partial agonists	–	–	–	partial agonists	–	neither 300 nM PBZI (hatched bar) nor 300 nM ES609 (cross hatched bar) induced GIRK currents	–	0.35*	5.74	0.29*	0.48*	7.28
